According to patent US20200316067A1, “COMBINATION OF RAF INHIBITORS AND TAXANES” (DOT Therapeutics-1, Inc., priority 2014, published 2020):

What was measured:
[1] = tested on: tumor cells with N-Ras mutation and K-Ras mutation, B-Raf wild type genetic background; test: Activity against tumor cells with MAPK pathway activation by upstream signaling; format: cell-based
[2] = tested on: melanoma tumor cells which developed resistance to vemurafenib; test: Activity against vemurafenib-resistant melanoma tumor cells; format: cell-based
[3] = Body weight loss in the Calu-6 xenograft study; format: in vivo, Mouse (Mus musculus) Athymic Balb/c Nude
Experimental: Each animal was inoculated with 2×10^6 Calu-6 tumor cells (in 0.1 mL, 1:1 with Matrigel) at the right flank for tumor model development. Body weight and the tumor growth were monitored twice weekly. Tumor size was measured to the nearest 0.1 mm using vernier caliper and applying the formula V=W^2×L/2, where V=volume, W=width, and L=length for the tumor xenograft. Xenografts were allowed to grow until they reached an average size of approximately 220 mm^3 after 14 days.
Tumor size and body weight were measured twice weekly beginning on the day of animal grouping. The study was terminated on Day 35 post treatment initiation.

[4] = tested on: N-Ras mutated SK-MEL-2 human melanoma xenograft; test: In vivo tumor efficacy, N-Ras mutated SK-MEL-2 human melanoma xenograft model; design: species or system Mouse (Mus musculus) Athymic NCr-nu/nu; conditions: Day 20
[5] = tested on: Calu-6 lung cancer model (KRAS Q61K); test: In vivo tumor efficacy, KRAS mutated Calu-6 human lung carcinoma model; design: species or system Mouse (Mus musculus) Athymic Balb/c Nude; conditions: for TGI: Day 21
[6] = Body weight loss in the SK-MEL-2 xenograft study; format: in vivo, Mouse (Mus musculus) Athymic NCr-nu/nu
Experimental: Tumor size and body weight were measured BIW beginning on the first day of treatment. Animals were terminated when their tumor reached approximately 2000 mm^3, and the study was terminated on Day 62 post treatment initiation.

[7] = Compound A 12.5 mg/kg PO QD Days 1-21

SMILES | activity against tumor cells [1] | activity against tumor cells [2] | Mean Maximum % BWL ([3]; Compound A 12.5 mg/kg PO QD, Day 0 to Day 21) | Mean Maximum % BWL ([3]; Compound A 50 mg/kg PO BIW, Day 7) | TGI ([4]; Compound A 50 mg/kg PO BIW) | ΔAUC [5, 7] | TGI [5, 7] | ΔAUC ([5]; Compound A 50 mg/kg PO BIW) | TGI ([5]; Compound A 50 mg/kg PO BIW) | Mean Maximum BWL ([6]; Compound A 12.5 mg/kg PO QD Days 0-20, Days 3 and 10) | Mean Maximum BWL ([6]; Compound A 50 mg/kg PO BIW, Day 17) | Mean Maximum % BWL ([3]; docetaxel 5 mg/kg IV QW, Day 0 to Day 21) | Mean Maximum % BWL ([3]; docetaxel 7.5 mg/kg IV QW, Day 21) | TGI ([4]; docetaxel 7.5 mg/kg IV QW) | ΔAUC ([5]; docetaxel 5 mg/kg IV QW) | TGI ([5]; docetaxel 5 mg/kg IV QW) | ΔAUC ([5]; docetaxel 7.5 mg/kg IV QW) | TGI ([5]; docetaxel 7.5 mg/kg IV QW) | Mean Maximum BWL ([6]; docetaxel 7.5 mg/kg IV QW, Day 14)
C[C@@H](NC(=O)c1ncnc(N)c1Cl)c1ncc(C(=O)Nc2cc(C(F)(F)F)c(Cl)cn2)s1 [Compound A, (R)-2-(1-(6-amino-5-chloropyrimidine-4-carboxamide)ethyl)-N-(5-chloro-4-(trifluoromethyl)pyridin-2-yl)thiazole-5-carboxamide] | active | active | 0% | −0.1% (Day 7) | 62.9% | 55.4 | 58.9% | 62.7 | 59.4% | 1% (Days 3 | 4% (Day 17) |  |  |  |  |  |  |  | 
CC(=O)O[C@@]12CO[C@@H]1C[C@H](O)[C@@]1(C)C(=O)[C@H](O)C3=C(C)[C@@H](OC(=O)[C@H](O)[C@@H](NC(=O)OC(C)(C)C)c4ccccc4)C[C@@](O)([C@@H](OC(=O)c4ccccc4)[C@H]21)C3(C)C [docetaxel, reference compound] |  |  |  |  |  |  |  |  |  |  |  | 0% | 2.5% (Day 21) | 74.9% | 9.0 | 5.2% | 18.4 | 17.7% | 15% (Day 14)
